Laboratory results published in ChEMBL document CHEMBL1201862, “PubChem BioAssay data set” (2004).
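Results reflect a 48-hour exposure of cells in 96-well plates to compound at five concentrations. GI50: concentration for 50% inhibition of growth.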 Activity calls are given as the source filed them. No stated cut-off is given here; in the data, active = GI50 up to about 1.1 µM and inactive = higher.

Experiments:
Assay in all cases: inhibition of tumour cell growth, NCI panel, 48 h
SK-MEL-2 = tested on: SK-MEL-2
KM12 = tested on: KM12
UACC-257 = tested on: UACC-257
EKVX = tested on: EKVX
MDA-MB-435 = tested on: MDA-MB-435
Hs-578T = tested on: Hs-578T
SK-MEL-5 = tested on: SK-MEL-5
CAKI-1 = tested on: CAKI-1
K562 = tested on: K562
HCT-15 = tested on: HCT-15
DU-145 = tested on: DU-145
UO-31 = tested on: UO-31
SNB-19 = tested on: SNB-19
OVCAR-8 = tested on: OVCAR-8
ACHN = tested on: ACHN
MOLT-4 = tested on: MOLT-4
MDA-N = tested on: MDA-N
786-0 = tested on: 786-0
NCI/ADR-RES = tested on: NCI/ADR-RES
HL-60 = tested on: HL-60

| Structure (SMILES) | GI50 (SK-MEL-2) | GI50 (KM12) | GI50 (UACC-257) | GI50 (EKVX) | GI50 (MDA-MB-435) | GI50 (Hs-578T) | GI50 (SK-MEL-5) | GI50 (CAKI-1) | GI50 (K562) | GI50 (HCT-15) [µM] | GI50 (DU-145) | GI50 (UO-31) | GI50 (SNB-19) | GI50 (OVCAR-8) | GI50 (ACHN) | GI50 (MOLT-4) | GI50 (MDA-N) | GI50 (786-0) | GI50 (NCI/ADR-RES) | GI50 (HL-60) |
| --- | --- | --- | --- | --- | --- | --- | --- | --- | --- | --- | --- | --- | --- | --- | --- | --- | --- | --- | --- | --- |
| C/C=C\C(CC(=O)NCC(=O)c1c[nH]c2ccccc12)CC(=O)OC (stereo unspecified) | > 100 µM (inactive) | > 100 µM (inactive) | > 100 µM (inactive) | > 100 µM (inactive) | > 100 µM (inactive) | > 100 µM (inactive) | > 100 µM (inactive) | > 100 µM (inactive) | > 100 µM (inactive) | > 100 | > 100 µM (inactive) | > 100 µM (inactive) | > 100 µM (inactive) | > 100 µM (inactive) | > 100 µM (inactive) | > 100 µM (inactive) | > 100 µM (inactive) | > 100 µM (inactive) | > 100 µM (inactive) | – |
| Cc1ccc(S(=O)(=O)NC(CCC(=O)NNc2ccccc2)C(=O)NNc2ccccc2)cc1 (stereo unspecified) | 13.5 µM (inactive) | 2.84 µM (inactive) | 15.1 µM (inactive) | > 100 µM (inactive) | > 100 µM (inactive) | 64.1 µM (inactive) | 98.4 µM (inactive) | > 100 µM (inactive) | 85.9 µM (inactive) | 15.4 | – | 6.1 µM (inactive) | > 100 µM (inactive) | 6.43 µM (inactive) | 2.13 µM (inactive) | 3.85 µM (inactive) | 17.2 µM (inactive) | > 100 µM (inactive) | > 100 µM (inactive) | > 100 µM (inactive) |
| CC(=O)OCC1OC(N2C(c3ccccc3)=CC(c3ccccc3)C(C#N)=C2S)C(OC(C)=O)C(OC(C)=O)C1OC(C)=O (stereo unspecified) | 2.27 µM (inactive) | 15.7 µM (inactive) | 3.63 µM (inactive) | – | 4.92 µM (inactive) | 3.27 µM (inactive) | 1.64 µM (inactive) | 3.08 µM (inactive) | 3.76 µM (inactive) | 48.5 | 26.4 µM (inactive) | 19.2 µM (inactive) | 5.96 µM (inactive) | 3.88 µM (inactive) | 5.58 µM (inactive) | 48.6 µM (inactive) | 2.02 µM (inactive) | 2.33 µM (inactive) | 14.3 µM (inactive) | – |
| Cn1c(N=P(c2ccccc2)(c2ccccc2)c2ccccc2)c([N+](=O)[O-])c(=O)n(C)c1=O | 17.4 µM (inactive) | 25.6 µM (inactive) | 73.1 µM (inactive) | 56.2 µM (inactive) | 35.2 µM (inactive) | 25.2 µM (inactive) | 47.4 µM (inactive) | > 100 µM (inactive) | 16.2 µM (inactive) | 51.9 | – | 71 µM (inactive) | > 100 µM (inactive) | 0.991 µM (active) | 55.7 µM (inactive) | 21.2 µM (inactive) | 34.1 µM (inactive) | 39 µM (inactive) | 89.9 µM (inactive) | – |
| N#Cc1c(N)nc(S)c(C#N)c1-c1ccccc1 | 82.4 µM (inactive) | > 100 µM (inactive) | > 100 µM (inactive) | > 100 µM (inactive) | – | > 100 µM (inactive) | > 100 µM (inactive) | 88.1 µM (inactive) | > 100 µM (inactive) | > 100 | > 100 µM (inactive) | 52.8 µM (inactive) | > 100 µM (inactive) | > 100 µM (inactive) | > 100 µM (inactive) | > 100 µM (inactive) | > 100 µM (inactive) | > 100 µM (inactive) | – | > 100 µM (inactive) |
| COc1ccc(NC(C)=O)cc1N1C(=O)/C(=C\c2ccccc2)SC1c1cc(OC)c(OC)c(OC)c1 (stereo unspecified) | 31.8 µM (inactive) | 16.3 µM (inactive) | > 100 µM (inactive) | 27.2 µM (inactive) | 24.9 µM (inactive) | – | 12 µM (inactive) | 34.7 µM (inactive) | 33.7 µM (inactive) | 21.7 | 20.4 µM (inactive) | 33.7 µM (inactive) | 34 µM (inactive) | 23.1 µM (inactive) | 39.2 µM (inactive) | 25.6 µM (inactive) | 25.8 µM (inactive) | 19.2 µM (inactive) | 17.4 µM (inactive) | 26.8 µM (inactive) |
| C=CC(C)(C)C(=C)C(=O)Nc1ccccc1I | > 100 µM (inactive) | > 100 µM (inactive) | > 100 µM (inactive) | 83.9 µM (inactive) | > 100 µM (inactive) | > 100 µM (inactive) | > 100 µM (inactive) | > 100 µM (inactive) | > 100 µM (inactive) | > 100 | > 100 µM (inactive) | > 100 µM (inactive) | > 100 µM (inactive) | > 100 µM (inactive) | > 100 µM (inactive) | – | > 100 µM (inactive) | 2.29 µM (inactive) | > 100 µM (inactive) | – |
| CCON1CC(C(=O)OC)=C(O)C1=O | > 100 µM (inactive) | > 100 µM (inactive) | > 100 µM (inactive) | > 100 µM (inactive) | > 100 µM (inactive) | > 100 µM (inactive) | > 100 µM (inactive) | > 100 µM (inactive) | > 100 µM (inactive) | > 100 | > 100 µM (inactive) | > 100 µM (inactive) | > 100 µM (inactive) | > 100 µM (inactive) | > 100 µM (inactive) | > 100 µM (inactive) | > 100 µM (inactive) | > 100 µM (inactive) | > 100 µM (inactive) | – |
| S=C(N1CCN(c2cccc(Cl)c2)CC1)N1CCN(c2cccc(Cl)c2)CC1 | > 100 µM (inactive) | 24.4 µM (inactive) | 77.3 µM (inactive) | 35 µM (inactive) | 82 µM (inactive) | 18.6 µM (inactive) | 34.2 µM (inactive) | 25.2 µM (inactive) | 33 µM (inactive) | 57.3 | 30.3 µM (inactive) | 24 µM (inactive) | 39.7 µM (inactive) | > 100 µM (inactive) | 50.8 µM (inactive) | 16 µM (inactive) | > 100 µM (inactive) | 33.3 µM (inactive) | > 100 µM (inactive) | – |
| Cc1cc2c(c(=O)n1C)SCC2 | > 100 µM (inactive) | > 100 µM (inactive) | > 100 µM (inactive) | – | > 100 µM (inactive) | > 100 µM (inactive) | > 100 µM (inactive) | > 100 µM (inactive) | > 100 µM (inactive) | > 100 | > 100 µM (inactive) | > 100 µM (inactive) | > 100 µM (inactive) | > 100 µM (inactive) | > 100 µM (inactive) | > 100 µM (inactive) | > 100 µM (inactive) | > 100 µM (inactive) | > 100 µM (inactive) | – |
| CC(=O)c1cccc(Nc2nc3ccc(Cl)cc3c3[nH]c4ccccc4c23)c1 | 3.36 µM (inactive) | 4.94 µM (inactive) | 13.4 µM (inactive) | 3.54 µM (inactive) | 7.26 µM (inactive) | 9.35 µM (inactive) | 1.44 µM (inactive) | 3.03 µM (inactive) | 1.41 µM (inactive) | 6.08 | 4.35 µM (inactive) | 6.07 µM (inactive) | 10.5 µM (inactive) | 5.12 µM (inactive) | 4.11 µM (inactive) | – | 7.74 µM (inactive) | 1.85 µM (inactive) | 4.38 µM (inactive) | – |
| N#Cc1c(N2CCOCC2)ncn(-c2ccc(Cl)cc2)c1=O | > 100 µM (inactive) | > 100 µM (inactive) | > 100 µM (inactive) | > 100 µM (inactive) | > 100 µM (inactive) | – | > 100 µM (inactive) | > 100 µM (inactive) | > 100 µM (inactive) | > 100 | > 100 µM (inactive) | > 100 µM (inactive) | > 100 µM (inactive) | > 100 µM (inactive) | > 100 µM (inactive) | > 100 µM (inactive) | > 100 µM (inactive) | > 100 µM (inactive) | > 100 µM (inactive) | 18.1 µM (inactive) |
| COc1ccc(/C(Cl)=C(\C#N)c2ccc(OC)c(OC)c2)cc1OC | 96.2 µM (inactive) | – | > 100 µM (inactive) | 21.3 µM (inactive) | 87.7 µM (inactive) | – | 46.8 µM (inactive) | 54.2 µM (inactive) | 48.9 µM (inactive) | 44.3 | > 100 µM (inactive) | 59 µM (inactive) | > 100 µM (inactive) | – | 93.8 µM (inactive) | 78.9 µM (inactive) | > 100 µM (inactive) | > 100 µM (inactive) | – | 15.3 µM (inactive) |
| CCCCN1C(=O)N(c2ccc(OCC)cc2)C2N(CCCC)C1C(C)(C)C2(C)C (stereo unspecified) | 31.6 µM (inactive) | 34.1 µM (inactive) | 27.5 µM (inactive) | 19.7 µM (inactive) | 20.2 µM (inactive) | 18.6 µM (inactive) | 15.7 µM (inactive) | 26.3 µM (inactive) | – | 26.6 | 30.1 µM (inactive) | 27.1 µM (inactive) | 35.6 µM (inactive) | 32.3 µM (inactive) | 27.7 µM (inactive) | – | 22 µM (inactive) | 21.5 µM (inactive) | 23.5 µM (inactive) | – |
| O=C1C(Cl)=C(NCCN2CCOCC2)C(=O)c2ncccc21 | – | 1.73 µM (inactive) | 1.71 µM (inactive) | 1.75 µM (inactive) | 0.195 µM (active) | 2.11 µM (inactive) | 0.723 µM (active) | – | 0.378 µM (active) | 1.91 | 1.66 µM (inactive) | 1.65 µM (inactive) | 1.69 µM (inactive) | 1.53 µM (inactive) | 2.82 µM (inactive) | 1.51 µM (inactive) | 0.2 µM (active) | 1.44 µM (inactive) | – | – |
